Here are results for 78 compounds from patent US10051861B2, “N-arylamidine-substituted trifluoroethyl sulfide derivatives as acaricides and insecticides” (BAYER CROPSCIENCE AG, priority 2011, dated 2018).

This assay relates to greenhouse red spider mite (Tetranychus urticae). Briefly: Tetranychus urticae spray test, OP-resistant (TETRUR), bean leaf disks. In kind it is in vivo. Particulars: after 6 days; for efficacy (spider mites killed) / pest or weed control at 500 g/ha: application rate 500 g/ha. The protocol: After 6 days, the effect in % is determined.
Setting [1] is: Tetranychus urticae, foliar, 144 h, read-out: efficacy (spider mites killed).

For the compound `Cc1cc(F)c(N=C(N)C(F)(F)C(F)(F)C(F)(F)C(F)(F)C(F)(F)C(F)(F)C(F)(F)F)cc1SCC(F)(F)F` [Ia-06], the “efficacy (spider mites killed)” value was 100%.
Same read-out and setting: the value for `Cc1cc(F)c(N=C(N(Cc2ccccn2)Cc2ccccn2)C(F)(F)F)cc1SCC(F)(F)F` [Ia-08] was 100%; that for `Cc1cc(F)c(N=C(NS(=O)(=O)C(F)(F)F)C(F)(F)F)cc1SCC(F)(F)F` [Ia-16] was 100%; that for `CNC(=Nc1cc(SCC(F)(F)F)c(C)cc1Cl)C(F)(F)F` [Ia-20] was 100%.
On the same count and under the same terms, for `Cc1ccc(N=C(N)C(F)(F)F)cc1SCC(F)(F)F` [Ia-25] the value was 100%.
In the case of `Cc1cc(Cl)c(/N=C(\N)C(F)(F)C(F)(F)Cl)cc1SCC(F)(F)F` [Ia-30], the pest or weed control at 500 g/ha under setting [1] stood at 100%.
The same measure, in the same setting: for `CN(C)/C(=N/c1cc(SCC(F)(F)F)c(Br)cc1Br)C(F)(F)F` [Ia-32] the value was 100%.
Take `CN/C(=N/c1cc(SCC(F)(F)F)c(Br)cc1Br)C(F)(F)F` [Ia-37]: the pest or weed control at 500 g/ha under setting [1] is 100%.
With `Cc1cc(F)c(/N=C(\N)c2cccnc2)cc1SCC(F)(F)F` [Ia-40], the pest or weed control at 500 g/ha under setting [1] came to 100%.
On the same count and under the same terms, the value for `Cc1cc(F)c(/N=C(\N)c2ccncn2)cc1SCC(F)(F)F` [Ia-42] was 100%.
Still for that read-out and setting: for `CN/C(=N/c1cc(SCC(F)(F)F)c(Br)cc1F)C(F)(F)F` [Ia-43] the value was 100%; for `Cc1cc(F)c(/N=C(\N)c2ccc(Cl)nc2)cc1SCC(F)(F)F` [Ia-46], 100%; for `Cc1cc(F)c(/N=C(\N)C(F)(F)C(F)(F)Cl)cc1SCC(F)(F)F` [Ia-47], 100%.
The same measure, in the same setting: the value for `Cc1cc(Cl)c(/N=C(\N)C(F)F)cc1SCC(F)(F)F` [Ia-48] was 100%; that for `Cc1cc(Cl)c(SCC(F)(F)F)cc1/N=C(\N)c1ccccn1` [Ia-49] was 100%.
In the case of `CCN(CC)/C(=N/c1cc(SCC(F)(F)F)c(C)cc1F)C(F)(F)F` [Ia-51], the pest or weed control at 500 g/ha under setting [1] came to 100%.
Same read-out and setting: the value for `CN/C(=N/c1cc(SCC(F)(F)F)c(Cl)cc1F)C(F)(F)F` [Ia-52] was 100%; that for `Cc1cc(Cl)c(SCC(F)(F)F)cc1/N=C(\N(C)C)C(F)(F)F` [Ia-53] was 100%; that for `Cc1cc(F)c(/N=C(/NC2COC2)C(F)(F)F)cc1SCC(F)(F)F` [Ia-54] was 100%.
On the same count and under the same terms, the value for `Cc1cc(F)c(/N=C2/CCCN2CC(F)F)cc1SCC(F)(F)F` [Ia-55] was 100%.
Turning to `Cc1cc(Cl)c(/N=C(\N)C(F)(F)F)cc1SCC(F)(F)F` [Ia-56], the pest or weed control at 500 g/ha under setting [1] amounted to 100%.
In the case of `CN(C)/C(=N\c1cc(SCC(F)(F)F)c(Cl)cc1Cl)C(F)(F)F` [Ia-57], under setting [1], the pest or weed control at 500 g/ha came out at 100%.
Turning to `Cc1cc(F)c(/N=C(\N)C2(Cl)CC2)cc1SCC(F)(F)F` [Ia-58], the pest or weed control at 100 g/ha (Tetranychus urticae, foliar, 144 h, application rate 100 g/ha, read-out: efficacy (spider mites killed)) worked out at 100%.
For `Cc1cc(F)c(/N=C(/c2cccnc2)N(C)C)cc1SCC(F)(F)F` [Ia-59], under setting [1], the pest or weed control at 500 g/ha amounted to 90%.
Still for that read-out and setting: the value for `CN/C(=N\c1cc(SCC(F)(F)F)c(C)cc1F)c1ccc(Cl)cc1` [Ia-60] was 100%; that for `CN/C(=N\c1cc(SCC(F)(F)F)c(C)cc1F)c1cccnc1` [Ia-61, N′-{2-Fluoro-4-methyl-5-[(2,2,2-trifluoroethyl)sulfanyl]phenyl}-N-methylpyridine-3-carboximidamide] was 100%.
Same read-out and setting: for `CN1CCCC/C1=N\c1cc(SCC(F)(F)F)c(Cl)cc1Cl` [Ia-62] the value was 90%; for `Cc1cc(F)c(/N=C(\N)c2ccccn2)cc1SCC(F)(F)F` [Ia-63], 90%; for `CN/C(=N\c1cc(SCC(F)(F)F)c(C)cc1Cl)c1cccnc1` [Ia-64], 100%.
Same read-out and setting: for `Cc1cc(C)c(SCC(F)(F)F)cc1/N=C(\N)C(F)(F)C(F)(F)Cl` [Ia-65] the value was 100%; for `Cc1cc(F)c(/N=C(\N)C2CC2(F)Cl)cc1SCC(F)(F)F` (stereo not drawn) [Ia-67], 100%.
Take `CN1CCC/C1=N\c1cc(SCC(F)(F)F)c(Cl)cc1Cl` [Ia-68]: the pest or weed control at 500 g/ha under setting [1] worked out at 90%.
The same measure, in the same setting: for `CN/C(=N\c1cc(SCC(F)(F)F)c(C)cc1F)c1ccccc1Cl` [Ia-69] the value was 100%; for `Cc1cc(Cl)c(SCC(F)(F)F)cc1/N=C(\N)C(F)(F)C(F)(F)F` [Ia-70], 100%.
The same measure, in the same setting: for `Cc1cc(Cl)c(/N=C(/c2ccc(Cl)cc2)N(C)C)cc1SCC(F)(F)F` [Ia-71] the value was 100%.
Still for that read-out and setting: for `CN/C(=N\c1cc(SCC(F)(F)F)c(C)cc1F)c1ccccn1` [Ia-72] the value was 100%; for `Cc1cc(F)c(/N=C(\N)c2ccncc2)cc1SCC(F)(F)F` [Ia-73], 100%.
As for `Cc1cc(Cl)c(SCC(F)(F)F)cc1/N=C(\N)C1(Cl)CC1` [Ia-74], the pest or weed control at 500 g/ha under setting [1] is 100%.
Same read-out and setting: the value for `Cc1cc(F)c(/N=C(\N)C2CC2(Cl)Cl)cc1SCC(F)(F)F` (stereo not drawn) [Ia-75] was 100%; that for `Cc1cc(Cl)c(SCC(F)(F)F)cc1/N=C(\N)C(F)(F)F` [Ia-76] was 100%.
Still for that read-out and setting: the value for `CN(C)/C(=N/c1ccc(Cl)c(SCC(F)(F)F)c1)C(F)(F)F` [Ia-77] was 100%; that for `Cc1cc(C)c(SCC(F)(F)F)cc1/N=C(\N)c1ccc(Cl)nc1` [Ia-81] was 100%.
Still for that read-out and setting: the value for `COC/C(N)=N/c1cc(SCC(F)(F)F)c(C)cc1F` [Ia-82] was 100%; that for `N/C(=N\c1cccc(SCC(F)(F)F)c1)c1ccccn1` [Ia-83] was 100%; that for `Cc1cc(F)c(/N=C(/c2ccccc2Cl)N(C)C)cc1SCC(F)(F)F` [Ia-84] was 100%.
As to `Cc1cc(F)c(/N=C(/NC2(C)CC2)C(F)(F)F)cc1SCC(F)(F)F` [Ia-85], the pest or weed control at 500 g/ha under setting [1] was 100%.
On to `Cc1cc(F)c(/N=C(\N)c2ccc(C(F)(F)F)nc2)cc1SCC(F)(F)F` [Ia-86], for which, under setting [1], the pest or weed control at 500 g/ha worked out at 100%.
Still for that read-out and setting: the value for `CN/C(=N\c1cc(SCC(F)(F)F)c(Cl)cc1C)C(F)(F)F` [Ia-87] was 100%; that for `Cc1cc(F)c(/N=C2\CCCCN2C)cc1SCC(F)(F)F` [Ia-90] was 80%.
Still for that read-out and setting: for `CN/C(=N\c1cc(SCC(F)(F)F)c(C)cc1C)c1cccnc1` [Ia-91] the value was 90%; for `Cc1cc(F)c(/N=C(/C2CC2)N(C)C)cc1SCC(F)(F)F` [Ia-93], 100%.
The same measure, in the same setting: for `Cc1cc(F)c(/N=C(\N)C2CCC2)cc1SCC(F)(F)F` [Ia-94] the value was 100%.
On to `Cc1cc(C)c(SCC(F)(F)F)cc1/N=C(\N)c1ccncc1` [Ia-95], for which, under setting [1], the pest or weed control at 500 g/ha was 100%.
Still for that read-out and setting: the value for `CN/C(=N/c1cc(SCC(F)(F)F)c(F)cc1Cl)C(F)(F)F` [Ia-97] was 100%; that for `Cc1cc(C)c(SCC(F)(F)F)cc1/N=C(\N)c1ccccn1` [Ia-98] was 100%; that for `Cc1cc(F)c(/N=C(\N)C2CCCO2)cc1SCC(F)(F)F` (stereo not drawn) [Ia-99] was 100%.
Same read-out and setting: for `N/C(=N\c1cccc(SCC(F)(F)F)c1)C1(Cl)CC1` [Ia-100] the value was 100%.
The same measure, in the same setting: the value for `N/C(=N\c1cccc(SCC(F)(F)F)c1)c1ccncc1` [Ia-101] was 90%.
On to `Cc1cc(Cl)c(SCC(F)(F)F)cc1/N=C(\N)C1CC1` [Ia-102], for which, under setting [1], the pest or weed control at 500 g/ha is 90%.
On the same count and under the same terms, the value for `N/C(=N\c1cccc(SCC(F)(F)F)c1)c1cccnc1` [Ia-104] was 90%.
The same measure, in the same setting: for `Cc1cc(C)c(SCC(F)(F)F)cc1/N=C1\CCCN1C` [Ia-105] the value was 90%; for `Cc1cc(F)c(/N=C(\N(C)C)C2(C(C)C)CC2(Cl)Cl)cc1SCC(F)(F)F` (stereo not drawn) [Ia-106], 90%.
Same read-out and setting: for `N/C(=N\c1cccc(SCC(F)(F)F)c1)c1ccc(Cl)nc1` [Ia-107] the value was 90%.
In the case of `Cc1cc(F)c(/N=C(\NC2CC2)C2CC2)cc1SCC(F)(F)F` [Ia-108], the pest or weed control at 500 g/ha under setting [1] amounted to 80%.
Still for that read-out and setting: the value for `CN(C)/C(=N/c1cc(SCC(F)(F)F)c(F)cc1Cl)C(F)(F)F` [Ia-109] was 80%; that for `Cc1cc(C)c(SCC(F)(F)F)cc1/N=C(\N)C(F)(F)Cl` [Ia-122] was 100%.
Same read-out and setting: for `N/C(=N\c1cc(SCC(F)(F)F)c(Cl)cc1Cl)C1(Cl)CC1` [Ia-123] the value was 100%.
As to `N/C(=N/c1cc(SCC(F)(F)F)c(Cl)cc1Br)C(F)(F)F` [Ia-124], the pest or weed control at 500 g/ha under setting [1] amounted to 100%.
Same read-out and setting: for `N/C(=N\c1cc(SCC(F)(F)F)c(Cl)cc1Cl)C(F)F` [Ia-125] the value was 100%; for `CN/C(=N/c1cc(SCC(F)(F)F)c(C)cc1F)c1cccc(F)c1` [Ia-126], 100%; for `Cc1cc(C)c(SCC(F)(F)F)cc1/N=C(\N)C(F)(F)C(F)(F)F` [Ia-127], 100%.
Still for that read-out and setting: for `Cc1cc(F)c(/N=C(\c2ccc(F)cc2)N(C)C)cc1SCC(F)(F)F` [Ia-128] the value was 90%.
Same read-out and setting: the value for `Cc1cc(F)c(/N=C(\c2ccc(C#N)cc2)N(C)C)cc1SCC(F)(F)F` [Ia-131] was 100%; that for `Cc1cc(F)c(N=C(N)CC#N)cc1SCC(F)(F)F` [Ia-132] was 100%.
`Cc1cc(F)c(N=C(N)c2ccccc2F)cc1SCC(F)(F)F` [Ia-133]: the pest or weed control at 500 g/ha under setting [1] stood at 100%.
Still for that read-out and setting: the value for `CN/C(=N\c1cc(SCC(F)(F)F)c(Cl)cc1Cl)c1cccnc1` [Ia-136] was 100%; that for `Cc1cc(F)c(/N=c2\sc(C)c(C)n2CC(F)(F)F)cc1SCC(F)(F)F` [Ia-138] was 100%; that for `N/C(=N\c1cc(SCC(F)(F)F)c(Cl)cc1Cl)C1CC1(Cl)Cl` (stereo not drawn) [Ia-140] was 100%.
